Data as given in the supplement of paper PMC5908809.

Experiments:
[1] = tested on: normal NK cells expanded with K562-aAPC; assay: percent inhibition of viability; higher = more inhibition; conditions: 72 h, IL-2 2.5 ng/mL
Experimental: (§1)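 Drug sensitivity and resistance testing on K562-aAPC-expanded normal NK cells: 5 concentrations (10-fold steps over a 10,000-fold range), 72 h at 37 °C, viability by CellTiter-Glo normalised to DMSO and benzethonium chloride controls; DSS from the fitted curve.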

[2] = tested on: DERL-7 (IL-2 2.5 ng/mL); assay: as above; conditions: 72 h
[3] = tested on: IMC-1 (IL-2 20 ng/mL); assay: as above; conditions: 72 h
[4] = tested on: KAI3 (IL-2 2.5 ng/mL); assay: as above; conditions: 72 h
[5] = tested on: KHYG-1 (IL-2 2.5 ng/mL); assay: as above; conditions: 72 h
[6] = tested on: NK-92 (IL-2 2.5 ng/mL); assay: as above; conditions: 72 h
[7] = tested on: NK-YS (IL-2 2.5 ng/mL); assay: as above; conditions: 72 h
[8] = tested on: NKL (IL-2 2.5 ng/mL); assay: as above; conditions: 72 h
[9] = tested on: SNK-6 (IL-2 2.5 ng/mL); assay: as above; conditions: 72 h
[10] = tested on: YT (IL-2 2.5 ng/mL); assay: as above; conditions: 72 h
[11] = tested on: normal primary NK cells, pool 1 (3 donors) (IL-2 2.5 ng/mL); assay: as above; conditions: 72 h
[12] = tested on: normal primary NK cells, pool 1 (3 donors), resting (IL-2 0 ng/mL); assay: as above; conditions: 72 h
[13] = tested on: normal primary NK cells, pool 2 (3 donors) (IL-2 2.5 ng/mL); assay: as above; conditions: 72 h
[14] = tested on: normal primary NK cells, pool 3 (3 donors) (IL-2 2.5 ng/mL); assay: as above; conditions: 72 h
[15] = tested on: normal NK cells expanded with K562-aAPC; assay: drug sensitivity score (DSS) (DSS units); higher = more sensitive; extreme values may be limits of the assay; conditions: 72 h; IL-2 2.5 ng/mL
Experimental: as §1

[16] = tested on: DERL-7 (IL-2 2.5 ng/mL); assay: as above; conditions: 72 h
[17] = tested on: IMC-1 (IL-2 20 ng/mL); assay: as above; conditions: 72 h
[18] = tested on: KAI3 (IL-2 2.5 ng/mL); assay: as above; conditions: 72 h
[19] = tested on: KHYG-1 (IL-2 2.5 ng/mL); assay: as above; conditions: 72 h
[20] = tested on: NK-92 (IL-2 2.5 ng/mL); assay: as above; conditions: 72 h
[21] = tested on: NK-YS (IL-2 2.5 ng/mL); assay: as above; conditions: 72 h
[22] = tested on: NKL (IL-2 2.5 ng/mL); assay: as above; conditions: 72 h
[23] = tested on: SNK-6 (IL-2 2.5 ng/mL); assay: as above; conditions: 72 h
[24] = tested on: YT (IL-2 2.5 ng/mL); assay: as above; conditions: 72 h
[25] = tested on: normal primary NK cells, pool 1 (3 donors) (IL-2 2.5 ng/mL); assay: as above; conditions: 72 h
[26] = tested on: normal primary NK cells, pool 1 (3 donors), resting (IL-2 0 ng/mL); assay: as above; conditions: 72 h
[27] = tested on: normal primary NK cells, pool 2 (3 donors) (IL-2 2.5 ng/mL); assay: as above; conditions: 72 h
[28] = tested on: normal primary NK cells, pool 3 (3 donors) (IL-2 2.5 ng/mL); assay: as above; conditions: 72 h

Nc1nc(Cl)nc2c1ncn2[C@H]1C[C@H](O)[C@@H](CO)O1 [Cladribine] (max concentration tested 1000 nM)
percent inhibition of viability [%]
Conditions | 0.1 nM | 1 nM | 10 nM | 100 nM | 1000 nM
[1] | -1.61 | -1.55 | 30.3 | 100 | 100
[2] | -4.72 | -1.74 | 2.44 | 83.3 | 100
[3] | -1.93 | -4.54 | -8.55 | 59.4 | 99.9
[4] | -17.3 | -11.1 | -4.18 | 61.5 | 92.2
[5] | -2.1 | -6.64 | 0.12 | 102 | 99.4
[6] | -7.06 | -4.86 | 2.88 | 92.3 | 97.7
[7] | -8.76 | -10.6 | -9.2 | 7.65 | 88.2
[8] | -13.2 | -8.81 | -9.87 | 104 | 98.6
[9] | 11.6 | 5.52 | 8.41 | 66.9 | 91.5
[10] | -4 | -5.35 | -6.95 | 5.62 | 56.9
[11] | -5.25 | -7.26 | 23.2 | 93.1 | 96.5
[12] | -18.2 | -14.8 | 62 | 90.2 | 90
[13] | -13.2 | -12.7 | 24.4 | 90.6 | 93.7
[14] | -12.6 | -10.5 | 18.2 | 87.7 | 97

Conditions | drug sensitivity score
[15] | 22.4
[16] | 15.4
[17] | 12.5
[18] | 12.2
[19] | 18.2
[20] | 17.1
[21] | 6.1
[22] | 17.6
[23] | 13.8
[24] | 3.98
[25] | 20.3
[26] | 23.5
[27] | 20.3
[28] | 18.4

CCc1cc2c(cc1N1CCC(N3CCOCC3)CC1)C(C)(C)c1[nH]c3cc(C#N)ccc3c1C2=O [Alectinib] (max concentration tested 1000 nM)
percent inhibition of viability [%]
Conditions | 0.1 nM | 1 nM | 10 nM | 100 nM | 1000 nM
[1] | 0.14 | -2.95 | -2.33 | -2.36 | 4.52
[2] | -1.51 | -2.79 | -1.59 | -8.82 | 13
[3] | -2.94 | 1.06 | -2.15 | -2.79 | -0.64
[4] | -3.74 | 3.89 | 3.63 | 1.36 | -4
[5] | -3.94 | 0.6 | -1.88 | 10.3 | 14.5
[6] | -7.49 | -8.89 | -12 | 9.46 | 24.4
[7] | -5.67 | -3.61 | -7.75 | 6.14 | 18.4
[8] | -9 | -7.92 | -11.6 | -10.4 | 20.1
[9] | -2.43 | -0.7 | -18.9 | -29 | -2.44
[10] | -3.8 | -4.08 | -6.26 | 0.11 | 2.48
[11] | -1.7 | -9.82 | -10.4 | -1.45 | 0.6
[12] | -6.37 | -4.08 | -8.77 | 1.83 | 12.5
[13] | -3.03 | -7.68 | -3.35 | -8.46 | 3.39
[14] | -8.17 | -9.65 | -5.32 | -8.21 | -0.39

Conditions | drug sensitivity score
[15] | 0
[16] | 0.02
[17] | 0
[18] | 0
[19] | 0.86
[20] | 2.08
[21] | 1.14
[22] | 0.33
[23] | 0
[24] | 0
[25] | 0
[26] | 0.17
[27] | 0
[28] | 0

COCC(=O)NC/C=C/c1ccc2ncnc(Nc3ccc(Oc4ccc(C)nc4)c(C)c3)c2c1 (max concentration tested 10000 nM)
percent inhibition of viability [%]
Conditions | 1 nM | 10 nM | 100 nM | 1000 nM | 10000 nM
[1] | -7.95 | -1.69 | -8 | -3.66 | 3.1
[2] | -3.08 | -0.4 | -4.63 | 9.9 | 33
[3] | -0.96 | -1.82 | -0.25 | 1.87 | 55.9
[4] | 16.4 | 7.76 | 7.06 | 11.1 | 64.8
[5] | -2.05 | -5.21 | -2.56 | -1.27 | 29.4
[6] | 1.59 | 8.37 | 6.53 | 22.8 | 75
[7] | -0.22 | 0.49 | 1.46 | 4.98 | 25.6
[8] | 1.03 | -1.8 | 0.69 | 8.06 | 58.8
[9] | -0.22 | -18.4 | -12.7 | -1.13 | 63.7
[10] | 3.6 | -0.32 | 0.57 | 9.46 | 48.2
[11] | -12 | -6.34 | -1.36 | -3.88 | 14.2
[12] | 14.9 | 9.42 | 15.7 | 21.2 | 61
[13] | 1.3 | 6.76 | -0.67 | 11.9 | 23.1
[14] | -5.66 | 4.44 | 4.87 | 10.9 | 5.97

Conditions | drug sensitivity score
[15] | 0
[16] | 2.95
[17] | 3.25
[18] | 5.41
[19] | 1.16
[20] | 7.15
[21] | 1.75
[22] | 4.55
[23] | 3.37
[24] | 4.08
[25] | 0.09
[26] | 6.9
[27] | 2.13
[28] | 0.05

Nc1nc(F)nc2c1ncn2[C@@H]1O[C@H](CO)[C@@H](O)[C@@H]1O [Fludarabine] (max concentration tested 10000 nM)
percent inhibition of viability [%]
Conditions | 1 nM | 10 nM | 100 nM | 1000 nM | 10000 nM
[1] | -4.55 | -1.76 | -0.86 | 67.3 | 100
[2] | -6.18 | -6.69 | 2.47 | -9.31 | 74.8
[3] | -8.37 | 2.44 | -0.32 | 0.25 | 53.5
[4] | -10.9 | -7.43 | -11.6 | 10.9 | 97.9
[5] | -3.8 | -1.74 | -3.07 | 5.53 | 82.9
[6] | -5.82 | -19.1 | -10.8 | 24.7 | 101
[7] | -7.11 | -1.12 | -0.69 | 4.05 | 12.8
[8] | -18.8 | -16.5 | -2.27 | 56.9 | 100
[9] | 18.4 | 33.8 | 24.8 | 32.5 | 28
[10] | -2.12 | 0.54 | 0.43 | -2.19 | 4.14
[11] | 6.23 | -6.78 | 8.3 | 45.7 | 93.6
[12] | -2.66 | -18.7 | 10.1 | 65.3 | 89.5
[13] | -15.8 | -12 | 5.13 | 47.7 | 93
[14] | -13.2 | -7.62 | 3.81 | 29.6 | 90.2

Conditions | drug sensitivity score
[15] | 13.3
[16] | 3.52
[17] | 2.89
[18] | 7.22
[19] | 5.42
[20] | 9.32
[21] | 0.32
[22] | 12.3
[23] | 7.06
[24] | 0
[25] | 10.6
[26] | 13.5
[27] | 10.8
[28] | 9.07

CCCS(=O)(=O)Nc1ccc(F)c(C(=O)c2c[nH]c3ncc(-c4ccc(Cl)cc4)cc23)c1F [Vemurafenib] (max concentration tested 10000 nM)
percent inhibition of viability [%]
Conditions | 1 nM | 10 nM | 100 nM | 1000 nM | 10000 nM
[1] | -5.54 | -6.29 | -9.37 | -4.54 | 5.8
[2] | 3.23 | 0.38 | 4.34 | 15.4 | 79.5
[3] | -6.37 | -7.47 | -1.05 | -3.36 | 37.8
[4] | -2.25 | -4.57 | -1.04 | 12.3 | 75.2
[5] | 1.21 | -7.43 | 3.43 | 42.5 | 105
[6] | -0.79 | 1.62 | 12 | 22.6 | 89.5
[7] | -2.8 | -10.1 | -3.62 | 0.91 | 77.1
[8] | -13.6 | -17.7 | -12.3 | 12.2 | 73.1
[9] | -12.9 | -2.01 | -17 | -0.04 | 92.6
[10] | 1.23 | -1.61 | 4.12 | 16.2 | 98.7
[11] | -3.98 | -7.14 | 1.09 | 0.31 | -3.81
[12] | 3.45 | -3.02 | 6.61 | 23.4 | 23.8
[13] | -1.54 | -1.23 | 6.03 | 0.86 | 9.89
[14] | 0.76 | -2.71 | 6.1 | 0.26 | 0.17

Conditions | drug sensitivity score
[15] | 0
[16] | 6.92
[17] | 1.59
[18] | 6.2
[19] | 11.1
[20] | 8.16
[21] | 4.38
[22] | 6.06
[23] | 5.17
[24] | 8.15
[25] | 0
[26] | 4.54
[27] | 0
[28] | 0
